Legend:
[1] = CLM 10 mg/kg PO, healthy beagles, not steady state; cited from earlier work
[2] = Adverse effects during multiple CLM treatment; assay type: in vivo, healthy beagles (dogs); settings: CLM about 10 mg/kg PO twice daily for ten days; three healthy beagles

Structure (SMILES): CC[C@H]1OC(=O)[C@H](C)[C@@H](O[C@H]2C[C@@](C)(OC)[C@@H](O)[C@H](C)O2)[C@H](C)[C@@H](O[C@@H]2O[C@H](C)C[C@H](N(C)C)[C@H]2O)[C@](C)(OC)C[C@@H](C)C(=O)[C@H](C)[C@@H](O)[C@]1(C)O [CLM, Clarithromycin]
- serum concentrations [1]: approximately 3 µg/ml
- adverse effects associated with CLM, such as gastrointestinal irritation [2]: no adverse effects
